The numbers were not newly measured in US12274695B2, “Pharmaceutical drug therapy for autism” (priority 2020, dated 2025), which cites them from elsewhere.

The conditions of data set [1]: in vivo.
Data set [2] has as its system fear conditioning. As to conditions: preclinical, after fear conditioning.
Data set [3] relates to mouse model of Alzheimer's disease (AD).
Data set [4] deals with humans. The note with it: in humans.
Data set [5] relates to monkey model of schizophrenia.
Data set [6] relates to adults with ASD. The note with it: 7 mg transdermal nicotine, 1 week.
The test system of data set [7] is BTBR T+Itpr3 tf/J (BTBR) mice.

SMILES strings stand for the structures. Where two headings read alike, the source gives them in different places.

For `CN1C(=O)CC[C@H]1c1cccnc1` [Cotinine], the blood-brain barrier crossing entry in data set [1] is given as “crosses the blood-brain barrier”. Further, the “plasma half-life compared with nicotine” value in data set [1] is given as “longer”. Also, the “extinction of fear memory and anxiety” value in data set [2] is “facilitated”. In addition, the working memory result in data set [3] and in data set [5] was “improved” each time. Also, the “addictive or cardiovascular effects” value in data set [4] was “no addictive or cardiovascular effects”.
For `CN1CCCC1c1cccnc1` (stereo not drawn) [nicotine, Nicotine], in data set [6], the Sleep ratings result is “improved”. In addition, in data set [6] (compared to placebo, five subjects), the “Aberrant Behavior Checklist-Irritability (ABC-I) subscale change from baseline” value is “improved”. In data set [6] (eight subjects), the tolerability result was “tolerated nicotine treatment well”. In addition, in data set [7] (BTBR mice), the repetitive behaviors entry is on record as “decrease repetitive behaviors” and the social deficits entry is given as “improve social deficits”. In addition, the “hotplate latency compared to vehicle” value in data set [7] (BTBR mice, higher doses) is “decreased”. In addition, the “hotplate latency compared to vehicle” value in data set [7] (BTBR mice, lower doses) is “increased”. Moreover, in data set [7] (control mice), the “antinociceptive effects to noxious heat” value was “only at the high dose”. The cold plate resistance entry in data set [7] (mice with Autism mutations, four-week nicotine treatment) is on record as “increase”.
